As for `*/C=C(/*)c1ccccc1C(F)(F)F` (repeat unit), the glass transition temperature stood at 130.00 °C.
As for `*/N=N/c1ccc(Nc2ccc(C(=O)c3ccc(Nc4ccc(*)cc4)cc3)cc2)cc1` (repeat unit), the figure is 216.42 °C; as for `*C(=O)OC1CC2CC(OC(=O)N3CCN(*)CC3)CC(C1)O2` (repeat unit), 113.00 °C; as for `*C(=O)Oc1ccc(-c2ccc(OC(=O)c3ccc4c(c3)C(=O)N(c3ccc(-c5ccc(N6C(=O)c7ccc(*)cc7C6=O)cc5C)c(C)c3)C4=O)cc2C)c(C)c1` (repeat unit), 177.00 °C.
`*C(=O)Oc1ccc(OC(=O)c2ccc3c(c2)C(=O)N(c2ccc(Oc4ccc(N5C(=O)c6ccc(*)cc6C5=O)cc4)cc2)C3=O)c(C(C)(C)C)c1` (repeat unit) came in with a glass transition temperature of 189.00 °C.
In the case of `*CC(COC(=O)O*)OCCCCCCCCCCCOc1ccc(/C=C/c2ccc([N+](=O)[O-])cc2)cc1` (repeat unit), the glass transition temperature amounted to 21.00 °C.
For `*CC(COC(=O)O*)OCCCCOc1ccc(/C=C/c2ccc([N+](=O)[O-])cc2)cc1` (repeat unit) the value was 42.00 °C; for `*CC(F)(F)C(F)(F)C(F)(F)COC(=O)c1cccc(C(=O)O*)c1` (repeat unit), 23.50 °C; for `*CC(O)COC(=O)C1CCC(C(=O)OCC(O)COc2ccc(C3(c4ccc(O*)cc4)c4ccccc4-c4ccccc43)cc2)CC1` (repeat unit), 110.00 °C.
For `*CC1CCC(COC(=O)O*)CC1` (repeat unit) the value was 38.70 °C; for `*CC1CCCC(COC(=O)c2ccc(C(=O)O*)cc2)C1` (repeat unit), 75.00 °C.
`*CCCCCCCCCCCCOc1ccc(/C=N/N=C/c2ccc(O*)cc2O)c(O)c1` (repeat unit) displayed a glass transition temperature of 89.00 °C.
`*CCCCCCCCCCCOC(=O)c1ccc(-c2ccc(C(=O)O*)cc2)cc1` (repeat unit) yielded a glass transition temperature of 49.00 °C.
Molecule `*CCCCCCCCCCOC(=O)c1ccc(-c2ccc(-c3ccc(C(=O)O*)cc3)cc2)cc1` (repeat unit) yielded a glass transition temperature of 50.00 °C.
`*CCCCCCCCCCOC(=O)c1ccccc1C(=O)O*` (repeat unit): the glass transition temperature is -14.00 °C.
As for `*CCCCCCCCCCOc1ccc(/C=C/c2ccc(OCCCCCCCCCCOP(=O)(O*)OCCCCCCCCCCOc3ccc(/N=N/c4ccc(-c5ccccc5)cc4)cc3)cc2)cc1` (repeat unit), the figure is 50.00 °C; as for `*CCCCCCOc1ccc(C(=O)N(C(=O)c2ccc(O*)cc2)c2cc(C)cc(C)c2)cc1` (repeat unit), 75.00 °C; as for `*CCCCCCOc1ccc(C(=O)OC(=O)c2ccc(O*)cc2)cc1` (repeat unit), 47.00 °C.
For `*CCCCOc1cccc(C(=O)OC(=O)c2cccc(O*)c2)c1` (repeat unit) the value was 20.00 °C; for `*CCCOc1ccc(C(=O)OC(=O)c2ccc(O*)cc2)cc1` (repeat unit), 95.00 °C.
In turn, `*CCCOc1cccc(C(=O)OC(=O)c2cccc(O*)c2)c1` (repeat unit) displayed a glass transition temperature of 53.00 °C.
Consider `*OC(*)C` (repeat unit), for which the glass transition temperature is -19.50 °C.
As for `*OC(*)CCC` (repeat unit), the figure is -41.00 °C; as for `*OC(=O)C1CCC(C(=O)OC2COC3C(*)COC23)CC1` (repeat unit), 121.00 °C.
For `*OC(=O)OCC(O)C(O)COC(=O)OC1COC2C(*)COC12` (repeat unit) the value was 78.50 °C; for `*OC(=O)c1ccc(C(=O)OC2CC3CC(*)CC(C2)O3)cc1` (repeat unit), 207.00 °C.
As for `*OC(=O)c1ccc(C(=O)OC2COC3C(*)COC23)cc1` (repeat unit), the figure is 255.50 °C; as for `*OC(=O)c1ccc(C(=O)OC2COC3C(*)COC23)o1` (repeat unit), 192.50 °C.
For the molecule `*OC(=O)c1ccc(CCCCc2ccc(C(*)=O)cc2)cc1` (repeat unit), the glass transition temperature came out at 46.00 °C.
As for `*OC(=O)c1cccc(OCCCCCCCCCCOc2cccc(C(=O)OC3COC4C(*)COC34)c2)c1` (repeat unit), the figure is 30.00 °C; as for `*OC(=O)c1cccc(OCCCCCCCCOc2cccc(C(=O)OC3COC4C(*)COC34)c2)c1` (repeat unit), 33.00 °C.
For `*OC(=O)c1cccc(OCCCCCCOc2cccc(C(=O)OC3COC4C(*)COC34)c2)c1` (repeat unit) the value was 43.50 °C; for `*OC(CC)C(*)=O` (repeat unit), 15.00 °C.
As for `*OC(CCl)COC(=O)C1=C(C(=O)OCC(CCl)OC(=O)c2ccc(C(*)=O)cc2)C2C=CC1C2` (repeat unit), the figure is 72.00 °C; as for `*OC(F)(F)C(*)(F)F` (repeat unit), -48.00 °C.
As to `*OC(F)(F)COC(=O)c1cccc(C(F)(F)C(F)(F)C(F)(F)c2cccc(C(=O)OCC(*)(F)F)c2)c1` (repeat unit), the glass transition temperature amounted to 30.00 °C.
Consider `*OC1C(C)(C)C(OC(=O)c2ccc(C(*)=O)cc2)C1(C)C` (repeat unit), for which the glass transition temperature was 184.00 °C.
`*OC1C(COC(=O)Nc2ccccc2)OC(*)C(OC(=O)Nc2ccccc2)C1OC(=O)Nc1ccccc1` (repeat unit) yielded a glass transition temperature of 217.00 °C.
For `*OC1C(COC(C)=O)OC(*)C(OC(C)=O)C1OC(C)=O` (repeat unit), the glass transition temperature amounted to 178.00 °C.
Consider `*OC1CCC(OC(*)=O)CC1` (repeat unit), for which the glass transition temperature came to 138.00 °C.
For `*OC1CCC(OC(=O)C(*)=O)CC1` (repeat unit) the value was 139.60 °C; for `*OC1CCC(OC(=O)c2ccc(C(*)=O)cc2)CC1` (repeat unit), 94.30 °C; for `*OC1CCCCC1*` (repeat unit), 68.50 °C.
The molecule `*OC1CCCCC1OC(*)=O` (repeat unit) gave a glass transition temperature of 117.30 °C.
`*OCC(F)(F)C(F)(F)C(F)(F)COc1nc(F)nc(*)c1F` (repeat unit) gave a glass transition temperature of 0.00 °C.
For `*ON(C(F)(F)F)C(F)(Cl)C(*)(F)F` (repeat unit) the value was -50.00 °C; for `*OP(=O)(Oc1ccc(Br)cc1)OC(CCl)COc1ccc(S(=O)(=O)c2ccc(OCC(*)CCl)cc2)cc1` (repeat unit), 58.00 °C; for `*O[Si](C)(C)O[Si](C)(C)O[Si](C)(C)O[Si](C)(C)OC1=C(*)c2cccc3cccc1c23` (repeat unit), -43.00 °C.
As for `*Oc1cc(C)cc(OC(=O)c2cccc(C(*)=O)c2)c1` (repeat unit), the figure is 163.00 °C; as for `*Oc1cc(CC)cc(OC(=O)c2cccc(C(*)=O)c2)c1` (repeat unit), 138.00 °C.
On to `*Oc1cc(CCCCCC)cc(OC(=O)c2cccc(C(*)=O)c2)c1` (repeat unit), for which the glass transition temperature came out at 67.50 °C.
In the case of `*Oc1cc(CCCCCCCC)cc(OC(=O)c2cccc(C(*)=O)c2)c1` (repeat unit), the glass transition temperature came to 50.50 °C.
In the case of `*Oc1cc(CCCCCCCCC)cc(OC(=O)c2cccc(C(*)=O)c2)c1` (repeat unit), the glass transition temperature worked out at 41.50 °C.
For `*Oc1ccc(C2(c3ccc(OC(=O)OC4C(C)(C)C(OC(*)=O)C4(C)C)cc3)CC3CCC2C3)cc1` (repeat unit) the value was 184.00 °C; for `*Oc1ccc(OC(=O)c2ccc(-c3ccc(C(*)=O)cc3)cc2-c2ccccc2)cc1C(C)(C)c1ccccc1` (repeat unit), 146.00 °C.
For `*Oc1ccc(S(=O)(=O)c2ccc(OC(=O)OC3C(C)(C)C(OC(*)=O)C3(C)C)cc2)cc1` (repeat unit) the value was 162.00 °C.
`*Oc1ccc(Sc2ccc(OC(=O)OC3C(C)(C)C(OC(*)=O)C3(C)C)cc2)cc1` (repeat unit): the glass transition temperature amounted to 107.00 °C.
The molecule `*Oc1ccc2c(c1)C1(CC2(C)C)CC(C)(C)c2ccc(OC(*)=O)cc21` (repeat unit) yielded a glass transition temperature of 228.00 °C.
As for `*Oc1ccc2c(c1)C1(CC2(C)C)CC(C)(C)c2ccc(OC(=O)c3ccc(C(*)=O)cc3)cc21` (repeat unit), the figure is 290.00 °C.
In the case of `*Oc1ccc2c(c1)C1(CC2(C)C)CC(C)(C)c2ccc(OC(=O)c3cccc(C(*)=O)c3)cc21` (repeat unit), the glass transition temperature amounted to 245.00 °C.
As for `*c1ccc(C(=O)OCCCCCCCCCCOC(=O)c2ccc(-c3nnc(*)s3)cc2)cc1` (repeat unit), the figure is 79.00 °C; as for `*c1ccc(OCCCCCCCCCCCOC(=O)c2ccc(C(=O)OCCCCCCCCCCCOc3ccc(-c4nnc(*)s4)cc3)cc2)cc1` (repeat unit), 64.00 °C.
`*c1ccc(OCCCCCCCCCCCOC(=O)c2ccc(C(=O)OCCCCCCCCCCCOc3cccc(-c4nnc(*)s4)c3)cc2)cc1` (repeat unit): the glass transition temperature came to 35.00 °C.
On to `*c1ccc(Oc2ccc(-c3cccc4c3C(=O)N(Oc3ccc(C(=O)c5ccc(Oc6cccc7c6C(=O)N(*)C7=O)cc5)cc3)C4=O)cc2)cc1` (repeat unit), for which the glass transition temperature turned out to be 252.00 °C.
For `*c1ccc(Oc2ccc(C(=O)c3ccc(Oc4ccc(-c5c6c(c(*)c7ccccc57)C(=O)N(c5ccc(C(F)(F)F)cc5)C6=O)cc4)cc3)cc2)cc1` (repeat unit) the value was 260.00 °C; for `*c1ccc(Oc2ccc(C(=O)c3ccc(Oc4ccc(-c5c6c(c(*)c7ccccc57)C(=O)N(c5ccc(Cl)cc5)C6=O)cc4)cc3)cc2)cc1` (repeat unit), 272.00 °C.
For `*c1cccc(OCCCCCCCCCCCOC(=O)c2ccc(C(=O)OCCCCCCCCCCCOc3cccc(-c4nnc(*)s4)c3)cc2)c1` (repeat unit) the value was 22.00 °C.

Source of the values: the PolyMetriX glass transition set.
